From patent publication US12612358B2, “Resorcinol-based compounds and uses thereof” (priority 2020, dated 2026) come the findings set out here.

The test system of data set [1] is MDA-MB231 breast cancer cells. As to the kind of experiment: Combination with paclitaxel, viability of MDA-MB231 cells (combination index). The format is cell-based, human. The following applies: combination with paclitaxel at optimal combined ratios. As to the method:
Concentration-response curves were generated for Compound-5B and paclitaxel alone and in combination (FIG. 2C). The inhibitory values from the concentration response curves were used to calculate combination index (CI) values at multiple combination ratios (FIG. 3A). Methods: Multiple viability assays in a 384 well format were run for each compound and the average percent inhibition of cell viability was calculated and transformed to fraction affected (Fa) e.g., percent inhibitory effect. CI values were calculated using Compusyn software (FIG. 3B). After determining the (IC50/Fa 0.5) values of the drugs individually (C), components were then combined at specific concentration ranges (FIG. 3B) and a combination index was calculated where CI<1, =1, and >1 indicate synergism, additive effect, and antagonism, respectively.

Data set [2] has as its system mouse 4T1 TNBC. The experiment in a line: Cell proliferation, 4T1 TNBC cells. The data set is classed as cell-based. As to conditions: mouse 4T1 TNBC cells; read-out: IC50 group for inhibition of cell proliferation.
The nature of data set [3]: Plasma protein binding (Eurofins ADME). The format is in vitro ADME. Here is the method:
Evaluating ADME of Compound-5B in vitro. It is important to evaluate ADME first in culture as it allows for the selection of the best candidate for PK analysis in vivo. ADME analysis of Compound-5B was performed by Eurofins.

Data set [4] relates to cannabinoid receptors. The experiment in a line: Cannabinoid receptor binding.
Procedure: Eurofin's Kinome scan assay was used to screen Compound-5B against 468 kinases at 1 μM and 10 μM concentrations. […] In order to understand any potential pharmacological cross reactivity, a known contributor to clinical adverse drug reactions Compound-5B was tested in SAFETY scan E/IC50 ELECT.
Data set [5] relates to PANC9. The experiment in a line: CellTiter-Glo cell proliferation, patient-derived PANC9 tumorspheres. The format is cell-based. The following applies: Homo sapiens, 72 h, three days treatment, read-out: IC50 category. From the text: Effects of Compound-5B on proliferation and Id-1 expression in pancreatic cell lines. Compound-5B was next tested for inhibition of cell viability/proliferation in the three pancreatic cancer cell lines and two primary patient-derived cancer cell lines. Compound-5B inhibited cell viability/proliferation of all the cancer cell lines (Table 2). The culturing condition for the pancreatic cell lines was similar to those used in the breast cancer lines, with the exception of the primary patient-derived pancreatic cancer cell lines (PANC9 and PANC13). For determining inhibition of cell proliferation in patient-derived pancreatic cancer cells were cultured in a T75 ultra low attachment flasks with DMEM/F12 media supplemented with B27, penicillin/streptomycin (10,000 u/mL), 50 µg/mL human epidermal growth factor (hEGF), 50 μg/mL human fibroblast growth factor, and 5 μg/mL heparin. Cells were plated in a 384-well plate and incubated for three days to promote the formation of tumorspheres. Cells were then treated with Compound-5B for three days. Cell proliferation of pancreatic cells in the presence of drug was measured using the CellTiter-Glo luminescent Assay and IC50 values were calculated (Table 2). The IC50 and corresponding 95% confidence limits (CL) were calculated using non-linear regression analysis.

Structures are written as SMILES.

With `CCCCCCC(C)(C)c1cc(O)c(C(=O)Nc2ccccc2)c(O)c1` [Compound 5B, 2,6-dihydroxy-4-(2-methyloctan-2-yl)-N-phenylbenzamide], the “effect on paclitaxel inhibition of cell viability” value in data set [1] was “can enhance the ability of paclitaxel to inhibit the viability”. Also, the IC50 was 500 to 1000 nM in data set [2] and less than 500 nM in data set [5]. Moreover, the plasma protein binding result in data set [3] was “high”. Moreover, in data set [4], the “binding to the cannabinoid receptors” value was “does not bind”.
